According to US20240148821A1, “PHARMACEUTICAL USE OF CYCLIC PEPTIDE COMPOUND” (CHUGAI SEIYAKU KABUSHIKI KAISHA, priority 2021, published 2024):
Bridge positions count the residues as written; N and C are the ends. Square brackets hold non-standard residues; d marks the D form. Peptide text beside a SMILES is read from it. * marks the point of attachment. hPhe(3-Cl-4-CF3) = N[C@@H](CCc1ccc(C(F)(F)F)c(Cl)c1)C(=O)O; NMeCha = CN[C@@H](CC1CCCCC1)C(=O)O; NMeGly(cPr) = CN[C@H](C(=O)O)C1CC1; NMeF = CN[C@@H](Cc1ccccc1)C(=O)O; NMeD = CN[C@@H](CC(=O)O)C(=O)O; NMeL = CN[C@@H](CC(C)C)C(=O)O; NMeNle = CCCC[C@H](NC)C(=O)O; NMeNva = CCC[C@H](NC)C(=O)O; NMeV = CN[C@H](C(=O)O)C(C)C; d(β3hA) = C[C@@H](N)CC(=O)O; NMeAbu = CC[C@H](NC)C(=O)O; NMeA = CN[C@@H](C)C(=O)O; Piperidide = C1CCN(*)CC1; Ac5c = NC1(C(=O)O)CCCC1; Aze = O=C(O)[C@@H]1CCN1; Sar = CNCC(=O)O

The molecules below were run against protein-protein interaction between Kras and SOS1 (biotin-tagged human Kras loaded with GDP, His-tagged human SOS1) (Homo sapiens (Human), UniProt P01116, G12D) (assay: Protein-protein interaction inhibition between Kras and SOS1 (KrasG12D-SOS PPI) using AlphaScreen). Conditions: AlphaScreen; biotin-tagged human Kras loaded with GDP, His-tagged human SOS1; read-out: KRAS G12D-SOS PPI IC50.
Type: biochemical

Compound | IC50 [nM]
CCC[C@H]1C(=O)N2CC[C@H]2C(=O)N(C)[C@@H](CC2CCCCC2)C(=O)N(C)CC(=O)N[C@@H](CCc2ccc(C(F)(F)F)c(Cl)c2)C(=O)N2CCC[C@H]2C(=O)NC2(CCCC2)C(=O)N(C)[C@@H](C(C)C)C(=O)N[C@H](C)CC(=O)N(C)[C@@H](CC(C)C)C(=O)N[C@@H]([C@@H](C)CC)C(=O)N1C [Compound 1560] (cyclo([Ac5c][NMeV][d(β3hA)][NMeL]I[NMeNva][Aze][NMeCha][Sar][hPhe(3-Cl-4-CF3)]P)) | 160
CC[C@H](C)[C@@H]1NC(=O)[C@H](CC(C)C)N(C)C(=O)C[C@@H](C(=O)N2CCCCC2)N(C)C(=O)[C@H](C(C)C)N(C)C(=O)C2(CCCC2)NC(=O)[C@@H]2CCCN2C(=O)[C@H](CCc2ccc(C(F)(F)F)c(Cl)c2)NC(=O)CN(C)C(=O)[C@H](CC2CCCCC2)N(C)C(=O)[C@@H]2CCN2C(=O)[C@H](Cc2ccccc2)N(C)C1=O [Compound 1561] ([NMeL]I[NMeF][Aze][NMeCha][Sar][hPhe(3-Cl-4-CF3)]P[Ac5c][NMeV][NMeD]-Piperidide; lactam N-11) | 33
CCC[C@H]1C(=O)N[C@@H]([C@@H](C)CC)C(=O)N(C)[C@@H](C)C(=O)N2CC[C@H]2C(=O)N(C)[C@@H](CC2CCCCC2)C(=O)N(C)CC(=O)N[C@@H](CCc2ccc(C(F)(F)F)c(Cl)c2)C(=O)N2CCC[C@H]2C(=O)NC2(CCCC2)C(=O)N(C)[C@@H](C(C)C)C(=O)N[C@H](C)CC(=O)N1C [Compound 1564] (cyclo([Ac5c][NMeV][d(β3hA)][NMeNva]I[NMeA][Aze][NMeCha][Sar][hPhe(3-Cl-4-CF3)]P)) | 38
CCCC[C@H]1C(=O)N[C@@H]([C@@H](C)CC)C(=O)N(C)[C@@H](C)C(=O)N2CC[C@H]2C(=O)N(C)[C@@H](CC2CCCCC2)C(=O)N(C)CC(=O)N[C@@H](CCc2ccc(C(F)(F)F)c(Cl)c2)C(=O)N2CCC[C@H]2C(=O)NC2(CCCC2)C(=O)N(C)[C@@H](C(C)C)C(=O)N[C@H](C)CC(=O)N1C [Compound 1568] (cyclo([Ac5c][NMeV][d(β3hA)][NMeNle]I[NMeA][Aze][NMeCha][Sar][hPhe(3-Cl-4-CF3)]P)) | 94
CC[C@H](C)[C@@H]1NC(=O)[C@H](CC(C)C)N(C)C(=O)C[C@@H](C(=O)N2CCCCC2)N(C)C(=O)[C@H](C(C)C)N(C)C(=O)C2(CCCC2)NC(=O)[C@@H]2CCCN2C(=O)[C@H](CCc2ccc(C(F)(F)F)c(Cl)c2)NC(=O)CN(C)C(=O)[C@H](CC2CCCCC2)N(C)C(=O)[C@@H]2CCN2C(=O)[C@H](CC)N(C)C1=O [Compound 1569] ([NMeL]I[NMeAbu][Aze][NMeCha][Sar][hPhe(3-Cl-4-CF3)]P[Ac5c][NMeV][NMeD]-Piperidide; lactam N-11) | 16
CC[C@H](C)[C@@H]1NC(=O)[C@H](CC(C)C)N(C)C(=O)C[C@@H](C)NC(=O)[C@H](C(C)C)N(C)C(=O)C2(CCCC2)NC(=O)[C@@H]2CCCN2C(=O)[C@H](CCc2ccc(C(F)(F)F)c(Cl)c2)NC(=O)CN(C)C(=O)[C@H](CC2CCCCC2)N(C)C(=O)[C@@H]2CCN2C(=O)[C@H](C2CC2)N(C)C1=O [Compound 1586] (cyclo([Ac5c][NMeV][d(β3hA)][NMeL]I[NMeGly(cPr)][Aze][NMeCha][Sar][hPhe(3-Cl-4-CF3)]P)) | 59
CC[C@H](C)[C@@H]1NC(=O)[C@H](CC(C)C)N(C)C(=O)C[C@@H](C(=O)N2CCCCC2)N(C)C(=O)[C@H](C(C)C)N(C)C(=O)C2(CCCC2)NC(=O)[C@@H]2CCCN2C(=O)[C@H](CCc2ccc(C(F)(F)F)c(Cl)c2)NC(=O)CN(C)C(=O)[C@H](CC2CCCCC2)N(C)C(=O)[C@@H]2CCN2C(=O)[C@H](C(C)C)N(C)C1=O [Compound 1592] ([NMeL]I[NMeV][Aze][NMeCha][Sar][hPhe(3-Cl-4-CF3)]P[Ac5c][NMeV][NMeD]-Piperidide; lactam N-11) | 210
